The supplement of paper PMC10307832

Experiments:
Test in all cases: relative viability (nuclei count vs DMSO), 5 days (fraction); higher = more cells survive
[1] = compound: CNC(=O)c1cc(Oc2ccc(NC(=O)Nc3ccc(Cl)c(C(F)(F)F)c3)cc2)ccn1 [Sorafenib] + C[C@@H](Oc1cc(-c2cnn(C3CCNCC3)c2)cnc1N)c1c(Cl)ccc(F)c1Cl [Crizotinib] (partner 1 µM)
How it was run: (§1)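 For relative viability, nuclei counts in treated wells were divided by those in vehicle wells. Lung cancer cell lines had been pin-tool dosed in 1536-well plates the day after seeding and cultured for 5 days, then fixed and stained in one step (final 0.05% Triton X-100, 1% formaldehyde, 1 ug/ml Hoechst) and imaged at 4×. Doses were one drug alone or a fixed anchor-drug dose plus five library-drug doses (not always all listed) in √10 steps, and values are duplicate-plate medians.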

[2] = compound: CNC(=O)c1cc(Oc2ccc(NC(=O)Nc3ccc(Cl)c(C(F)(F)F)c3)cc2)ccn1 [Sorafenib] + NC(=O)Nc1cc(-c2cccc(F)c2)sc1C(=O)N[C@H]1CCCNC1 [AZD7762] (partner 0.2 µM)
How it was run: as §1

[3] = compound: CNC(=O)c1cc(Oc2ccc(NC(=O)Nc3ccc(Cl)c(C(F)(F)F)c3)cc2)ccn1 [Sorafenib] + O=C(CCCCCCC(=O)Nc1ccccc1)NO [Vorinostat] (partner 1 µM)
How it was run: as §1

[4] = compound: CNC(=O)c1cc(Oc2ccc(NC(=O)Nc3ccc(Cl)c(C(F)(F)F)c3)cc2)ccn1 [Sorafenib] + C[C@]1(O)C[C@@H](c2nc(-c3ccc4ccc(-c5ccccc5)nc4c3)c3c(N)nccn32)C1 [Linsitinib] (partner 1 µM)
How it was run: as §1

[5] = compound: CNC(=O)c1cc(Oc2ccc(NC(=O)Nc3ccc(Cl)c(C(F)(F)F)c3)cc2)ccn1 [Sorafenib] + Cc1cc(Nc2cc(N3CCN(C)CC3)nc(Sc3ccc(NC(=O)C4CC4)cc3)n2)n[nH]1 [Tozasertib] (partner 0.1 µM)
How it was run: as §1

Cell Line	relative viability ([1]; first compound 0.08 µM)	relative viability ([1]; first compound 0.253 µM)	relative viability ([1]; first compound 2.53 µM)	relative viability ([1]; first compound 8 µM)	relative viability ([2]; first compound 0.08 µM)	relative viability ([2]; first compound 0.253 µM)	relative viability ([2]; first compound 2.53 µM)	relative viability ([3]; first compound 0.08 µM)	relative viability ([3]; first compound 0.253 µM)	relative viability ([3]; first compound 2.53 µM)	relative viability ([3]; first compound 8 µM)	relative viability ([4]; first compound 0.08 µM)	relative viability ([4]; first compound 0.253 µM)	relative viability ([4]; first compound 2.53 µM)	relative viability ([4]; first compound 8 µM)	relative viability ([5]; first compound 0.08 µM)	relative viability ([5]; first compound 0.253 µM)	relative viability ([5]; first compound 2.53 µM)	relative viability ([5]; first compound 8 µM)	relative viability ([2]; first compound 8 µM)
201T	1.03	1.01	1.13	1.08	0.575	0.554	0.449	1.01	0.946	0.963	0.926	1	0.985	1.02	1.06	0.964	0.925	0.955	0.827	–
A-427	0.895	0.855	0.826	0.369	0.831	0.675	0.715	0.84	0.894	0.914	1.01	1.07	1.06	1.03	0.987	0.21	0.261	0.217	0.132	0.541
ABC-1	1.4	1.07	–	1.04	1.09	0.714	0.876	1.23	0.811	1.22	0.482	0.837	0.893	0.918	0.956	0.227	0.219	0.214	0.185	0.68
BEN	1	0.844	0.862	0.68	–	0.493	0.741	0.567	0.621	0.685	0.593	1.02	0.914	0.886	0.693	0.519	0.423	0.536	0.482	0.611
CAL-12T	0.751	0.581	0.524	0.381	0.642	0.528	0.616	0.723	0.722	0.72	0.494	0.889	–	0.834	0.656	0.354	0.284	0.271	0.219	0.432
COR-L23	0.902	0.609	0.657	0.551	–	–	–	0.512	0.413	0.478	0.32	1.05	0.814	0.866	0.531	0.24	0.185	0.113	0.079	–
COR-L 105	0.874	0.73	0.839	0.855	–	–	–	1.01	0.696	0.946	0.551	0.853	0.926	0.906	0.985	0.405	0.435	0.322	0.411	–
ChaGo-K-1	1.22	1.09	1.07	–	0.899	0.796	0.845	0.737	0.689	0.775	0.557	–	–	–	–	0.229	0.235	0.215	0.192	0.809
EKVX	0.96	0.846	0.917	0.877	0.837	0.638	0.627	0.718	0.723	0.832	0.803	1.12	0.983	0.989	0.912	0.382	0.419	0.467	0.212	0.57
EMC-BAC-2	0.648	0.728	0.762	0.809	1.12	0.982	1.15	0.481	–	0.546	0.479	0.821	0.788	0.838	0.771	0.297	0.186	0.266	0.295	1.06
EPLC-272H	–	0.819	–	0.855	0.247	0.176	–	0.524	0.436	0.429	0.388	1.31	1.09	1.11	–	0.331	0.389	0.389	0.293	0.209
H3255	1.06	0.809	0.799	0.62	1.02	0.799	0.937	–	0.722	0.723	0.618	–	0.71	0.903	0.611	0.588	0.458	0.72	0.482	0.716
HARA	1.15	1.02	1.03	0.931	0.317	0.554	0.217	0.517	0.6	0.512	0.569	1.13	0.859	0.94	0.927	0.0919	0.137	0.146	0.1	0.315
HCC-15	0.836	0.774	0.813	0.566	1.18	1.17	1.05	0.973	0.764	0.83	0.576	–	0.873	0.846	0.554	0.443	0.438	0.372	0.179	0.951
HCC-44	0.811	0.735	0.725	0.565	0.99	0.938	0.909	1.03	1.05	1.09	1.16	0.68	0.629	–	0.658	0.884	0.688	0.858	0.773	–
HCC-78	0.394	0.361	0.483	0.507	0.846	0.496	0.863	0.459	0.331	0.532	0.496	0.562	0.42	0.457	0.573	0.391	0.371	0.492	0.493	0.768
HCC-366	0.705	0.464	0.549	0.356	0.306	0.283	0.181	0.315	0.343	0.256	0.22	0.66	0.628	0.732	0.463	0.109	0.083	0.054	0.0297	0.0837
HCC-827	–	0.918	0.94	0.853	0.211	0.207	0.215	0.837	0.572	0.844	0.667	0.934	0.88	0.986	0.851	0.423	0.471	0.421	0.45	0.161
HOP-62	1.01	0.901	0.84	0.57	–	0.567	0.405	0.736	0.363	0.368	0.276	1.14	0.839	0.781	0.49	0.431	0.331	0.338	0.155	0.207
IA-LM	0.573	0.623	0.494	0.4	–	–	–	–	0.647	0.436	0.508	0.456	0.281	0.373	0.436	–	–	–	–	–

Cell Line	relative viability ([1]; first compound 0.08 µM)	relative viability ([1]; first compound 0.253 µM)	relative viability ([1]; first compound 2.53 µM)	relative viability ([1]; first compound 8 µM)	relative viability ([2]; first compound 0.08 µM)	relative viability ([2]; first compound 0.253 µM)	relative viability ([2]; first compound 2.53 µM)	relative viability ([3]; first compound 0.08 µM)	relative viability ([3]; first compound 0.253 µM)	relative viability ([3]; first compound 2.53 µM)	relative viability ([3]; first compound 8 µM)	relative viability ([4]; first compound 0.08 µM)	relative viability ([4]; first compound 0.253 µM)	relative viability ([4]; first compound 2.53 µM)	relative viability ([4]; first compound 8 µM)	relative viability ([5]; first compound 0.08 µM)	relative viability ([5]; first compound 0.253 µM)	relative viability ([5]; first compound 2.53 µM)	relative viability ([5]; first compound 8 µM)	relative viability ([2]; first compound 8 µM)
NCI-H520	0.912	0.695	0.67	0.581	–	–	–	0.673	0.597	0.606	0.27	1.01	0.905	0.919	0.307	0.517	0.436	0.432	0.331	–
NCI-H522	–	–	–	–	1.1	0.556	0.874	1.02	0.81	0.89	0.741	–	–	–	–	0.626	0.596	0.588	0.523	0.723
NCI-H661	0.944	0.969	0.921	0.742	–	–	–	0.818	0.757	0.796	0.441	0.816	0.57	0.55	0.417	0.35	0.378	0.333	–	–
NCI-H1395	–	–	–	–	0.424	–	0.428	0.872	–	1.06	0.748	1.15	0.901	0.991	1.13	0.748	0.729	0.8	0.634	0.429
NCI-H1563	0.893	0.993	0.889	0.674	–	–	–	–	–	–	–	1.08	1.41	1.21	1.16	–	–	–	–	–
NCI-H1650	0.961	1.1	1.01	–	–	–	–	0.505	0.567	0.633	0.424	–	–	–	–	0.397	0.39	0.361	0.257	–
NCI-H1703	0.588	0.209	0.141	0.157	0.125	0.133	0.134	–	–	–	–	0.642	0.336	0.142	0.179	–	–	–	–	0.106
NCI-H1792	1.05	0.973	1	0.87	0.674	0.483	0.442	–	–	–	–	0.569	0.511	0.478	0.546	–	–	–	–	0.425
NCI-H1793	–	–	–	–	0.926	0.306	0.385	0.783	0.739	1.05	0.578	1.18	0.896	1.01	1.21	0.467	0.374	0.242	0.182	0.146
NCI-H2009	0.972	0.921	0.915	0.603	–	–	–	0.703	0.666	0.699	0.719	1.15	1.11	1.05	1.11	0.775	0.666	0.723	0.498	–
NCI-H2023	0.66	–	0.713	0.357	–	–	–	0.954	0.571	0.599	0.339	0.733	0.735	0.669	0.497	0.282	0.278	0.229	0.142	–
NCI-H2170	1.34	1.08	1.14	1.05	–	0.816	0.824	0.842	0.665	0.856	0.576	–	–	–	–	0.767	0.714	0.726	0.694	0.819
NCI-H2228	0.474	0.511	0.727	0.262	–	–	–	0.672	0.598	0.265	0.315	0.682	0.551	0.669	0.596	0.273	0.283	0.18	0.182	–
NCI-H2342	–	–	–	–	0.589	0.409	0.554	0.806	0.628	0.689	0.645	–	–	–	–	0.568	0.488	0.377	0.366	0.353
SK-LU-1	0.956	–	0.79	0.309	–	–	–	0.824	–	0.719	0.455	1.03	–	0.932	0.345	0.346	0.347	0.325	0.211	–
SK-MES-1	1.06	0.94	0.92	0.865	–	–	–	1.15	0.914	–	0.842	1.1	1.08	1	1.03	0.823	0.833	0.714	0.439	–
SW 900	–	–	–	–	0.675	0.571	0.571	0.71	0.398	0.72	0.618	–	–	–	–	0.718	0.467	0.402	0.316	0.377
SW 1573	0.984	0.86	0.89	0.753	–	–	–	0.662	0.618	0.366	0.425	0.805	0.786	0.79	0.378	0.194	0.205	0.174	0.119	–
UMC-11	0.558	0.578	0.541	0.204	–	–	–	0.395	0.422	0.379	0.36	0.991	0.989	0.945	0.687	0.209	0.195	0.202	0.184	–
